{
  "source": "the NIST ThermoML archive (doi:10.1021/je401120a)",
  "test": "refractive index (Na D-line) (dimensionless); xn = mol fraction of the nth substance listed",
  "conditions": "101 kPa, Liquid, Standard Abbe refractometry",
  "note": "± gives the expanded uncertainty stated by the source.",
  "data": [
    {"smiles": "CCC[n+]1ccccc1.F[B-](F)(F)F", "note": "[1-propylpyridinium tetrafluoroborate] + CO", "values": [
      {"measurement": "refractive index", "setting": "293.15 K, x1 = 0.0279", "value": "1.34377 ± 0.00042"},
      {"measurement": "refractive index", "setting": "293.15 K, x1 = 0.0576", "value": "1.35657 ± 0.00041"},
      {"measurement": "refractive index", "setting": "293.15 K, x1 = 0.0965", "value": "1.36988 ± 0.00041"},
      {"measurement": "refractive index", "setting": "293.15 K, x1 = 0.1457", "value": "1.38283 ± 0.00041"},
      {"measurement": "refractive index", "setting": "293.15 K, x1 = 0.1949", "value": "1.39301 ± 0.00042"},
      {"measurement": "refractive index", "setting": "293.15 K, x1 = 0.2548", "value": "1.4028 ± 0.00042"},
      {"measurement": "refractive index", "setting": "293.15 K, x1 = 0.3209", "value": "1.41121 ± 0.00043"},
      {"measurement": "refractive index", "setting": "293.15 K, x1 = 0.3998", "value": "1.4189 ± 0.00044"},
      {"measurement": "refractive index", "setting": "293.15 K, x1 = 0.496", "value": "1.42595 ± 0.00046"},
      {"measurement": "refractive index", "setting": "293.15 K, x1 = 0.5983", "value": "1.43176 ± 0.00047"},
      {"measurement": "refractive index", "setting": "293.15 K, x1 = 0.6901", "value": "1.43601 ± 0.00049"},
      {"measurement": "refractive index", "setting": "293.15 K, x1 = 0.8007", "value": "1.44014 ± 0.00052"},
      {"measurement": "refractive index", "setting": "293.15 K, x1 = 0.8821", "value": "1.44265 ± 0.00054"},
      {"measurement": "refractive index", "setting": "293.15 K, x1 = 1", "value": "1.44588 ± 0.00057"},
      {"measurement": "refractive index", "setting": "303.15 K, x1 = 0.0279", "value": "1.3399 ± 0.00042"},
      {"measurement": "refractive index", "setting": "303.15 K, x1 = 0.0576", "value": "1.35319 ± 0.00041"},
      {"measurement": "refractive index", "setting": "303.15 K, x1 = 0.0965", "value": "1.36693 ± 0.00041"},
      {"measurement": "refractive index", "setting": "303.15 K, x1 = 0.1457", "value": "1.38006 ± 0.00041"},
      {"measurement": "refractive index", "setting": "303.15 K, x1 = 0.1949", "value": "1.3903 ± 0.00042"},
      {"measurement": "refractive index", "setting": "303.15 K, x1 = 0.2548", "value": "1.40001 ± 0.00042"},
      {"measurement": "refractive index", "setting": "303.15 K, x1 = 0.3209", "value": "1.40839 ± 0.00043"},
      {"measurement": "refractive index", "setting": "303.15 K, x1 = 0.3998", "value": "1.41592 ± 0.00044"},
      {"measurement": "refractive index", "setting": "303.15 K, x1 = 0.496", "value": "1.42315 ± 0.00046"},
      {"measurement": "refractive index", "setting": "303.15 K, x1 = 0.5983", "value": "1.4289 ± 0.00047"},
      {"measurement": "refractive index", "setting": "303.15 K, x1 = 0.6901", "value": "1.43321 ± 0.00049"},
      {"measurement": "refractive index", "setting": "303.15 K, x1 = 0.8007", "value": "1.43738 ± 0.00052"},
      {"measurement": "refractive index", "setting": "303.15 K, x1 = 0.8821", "value": "1.43997 ± 0.00054"},
      {"measurement": "refractive index", "setting": "303.15 K, x1 = 1", "value": "1.44322 ± 0.00057"},
      {"measurement": "refractive index", "setting": "313.15 K, x1 = 0.0279", "value": "1.3361 ± 0.00042"},
      {"measurement": "refractive index", "setting": "313.15 K, x1 = 0.0576", "value": "1.34994 ± 0.00041"},
      {"measurement": "refractive index", "setting": "313.15 K, x1 = 0.0965", "value": "1.36409 ± 0.00041"},
      {"measurement": "refractive index", "setting": "313.15 K, x1 = 0.1457", "value": "1.37759 ± 0.00041"},
      {"measurement": "refractive index", "setting": "313.15 K, x1 = 0.1949", "value": "1.38806 ± 0.00042"},
      {"measurement": "refractive index", "setting": "313.15 K, x1 = 0.2548", "value": "1.39755 ± 0.00042"},
      {"measurement": "refractive index", "setting": "313.15 K, x1 = 0.3209", "value": "1.40578 ± 0.00043"},
      {"measurement": "refractive index", "setting": "313.15 K, x1 = 0.3998", "value": "1.41304 ± 0.00044"},
      {"measurement": "refractive index", "setting": "313.15 K, x1 = 0.496", "value": "1.42027 ± 0.00046"},
      {"measurement": "refractive index", "setting": "313.15 K, x1 = 0.5983", "value": "1.42609 ± 0.00047"},
      {"measurement": "refractive index", "setting": "313.15 K, x1 = 0.6901", "value": "1.43034 ± 0.00049"},
      {"measurement": "refractive index", "setting": "313.15 K, x1 = 0.8007", "value": "1.43461 ± 0.00052"},
      {"measurement": "refractive index", "setting": "313.15 K, x1 = 0.8821", "value": "1.43737 ± 0.00054"},
      {"measurement": "refractive index", "setting": "313.15 K, x1 = 1", "value": "1.44057 ± 0.00057"},
      {"measurement": "refractive index", "setting": "323.15 K, x1 = 0.0279", "value": "1.33304 ± 0.00042"},
      {"measurement": "refractive index", "setting": "323.15 K, x1 = 0.0576", "value": "1.34753 ± 0.00041"},
      {"measurement": "refractive index", "setting": "323.15 K, x1 = 0.0965", "value": "1.36215 ± 0.00041"},
      {"measurement": "refractive index", "setting": "323.15 K, x1 = 0.1457", "value": "1.37597 ± 0.00041"},
      {"measurement": "refractive index", "setting": "323.15 K, x1 = 0.1949", "value": "1.38633 ± 0.00042"},
      {"measurement": "refractive index", "setting": "323.15 K, x1 = 0.2548", "value": "1.39577 ± 0.00042"},
      {"measurement": "refractive index", "setting": "323.15 K, x1 = 0.3209", "value": "1.40373 ± 0.00043"},
      {"measurement": "refractive index", "setting": "323.15 K, x1 = 0.3998", "value": "1.41094 ± 0.00044"},
      {"measurement": "refractive index", "setting": "323.15 K, x1 = 0.496", "value": "1.4177 ± 0.00046"},
      {"measurement": "refractive index", "setting": "323.15 K, x1 = 0.5983", "value": "1.42341 ± 0.00047"},
      {"measurement": "refractive index", "setting": "323.15 K, x1 = 0.6901", "value": "1.42772 ± 0.00049"},
      {"measurement": "refractive index", "setting": "323.15 K, x1 = 0.8007", "value": "1.43193 ± 0.00052"},
      {"measurement": "refractive index", "setting": "323.15 K, x1 = 0.8821", "value": "1.43464 ± 0.00054"},
      {"measurement": "refractive index", "setting": "323.15 K, x1 = 1", "value": "1.43792 ± 0.00057"}
    ]}
  ]
}
